Test results published in patent US20260242419A1, “A CYCLIC PEPTIDE FOR TRAPPING INTERLEUKIN-1 BETA” (Merck Sharp & Dohme LLC, priority 2023, published 2026).
Starred links: 1 amine or outer side, 2 acyl side, 3 side chain; linkers in the order of their positions; H or OH if unused. Non-standard residues stand in square brackets, D forms with d. Residues, ends and D or L forms follow the SMILES beside them. dPro(4R-(4-pyridylmethyl)) = O=C(O)[C@H]1C[C@@H](Cc2ccncc2)CN1; Ala(piperidin-4-yl) = O=C([C@H](CC1CCN([*:3])CC1)N[*:1])[*:2]; X1 = COc1ncc(-c2ccc(C[C@H]3CCN([*:1])[C@H]3C(=O)[*:2])cc2)cn1; dPro(3S-(4-Br-benzyl)) = O=C(O)[C@@H]1NCC[C@@H]1Cc1ccc(Br)cc1; Trp(βS-Me,4-F) = C[C@@H](c1c[nH]c2cccc(F)c12)[C@H](N)C(=O)O; Bip(4'-COOH) = N[C@@H](Cc1ccc(-c2ccc(C(=O)O)cc2)cc1)C(=O)O; Ala(1-bicyclo(1.1.1)pentyl) = N[C@@H](CC12CC(C1)C2)C(=O)O; Phe(4-(4-pyridyl)) = N[C@@H](Cc1ccc(-c2ccncc2)cc1)C(=O)O; X28 = CC(=O)N1CCN(c2ncc(C[C@H](N[*:1])C(=O)[*:2])cn2)CC1; dPro(4R-Bzl(4-F)) = O=C(O)[C@H]1C[C@@H](Cc2ccc(F)cc2)CN1; dPro(3S-(4-F-Bn)) = O=C(O)[C@@H]1NCC[C@@H]1Cc1ccc(F)cc1; X4 = O=C([C@H]1[C@@H](Cc2ccncc2)CCN1[*:1])[*:2]; Ala(pyrimidin-5-yl) = N[C@@H](Cc1cncnc1)C(=O)O; Phe(4-COOH) = N[C@@H](Cc1ccc(C(=O)O)cc1)C(=O)O; X36 = O=C(O)c1ccc(C[C@H](N[*:1])C(=O)[*:2])cn1; Ala(2-pyrazinyl) = N[C@@H](Cc1cnccn1)C(=O)O; Pro(cis-4-F) = O=C(O)[C@@H]1C[C@H](F)CN1; Ala(4-THP) = N[C@@H](CC1CCOCC1)C(=O)O; cisHyp = O=C(O)[C@@H]1C[C@H](O)CN1; d(αMeD) = C[C@@](N)(CC(=O)O)C(=O)O; 3Pal = N[C@@H](Cc1cccnc1)C(=O)O; 4Pal = N[C@@H](Cc1ccncc1)C(=O)O; d(αMeS) = C[C@@](N)(CO)C(=O)O; αMeK = C[C@](N)(CCCCN)C(=O)O; Orn = NCCC[C@H](N)C(=O)O; Dab = NCC[C@H](N)C(=O)O; Aib = CC(C)(N)C(=O)O; Sar = CNCC(=O)O

Target: T1, IL-1β (Homo sapiens, UniProt P01584)
T1 construct: purchased BioLegend 579404
Assay: IL-6 assay in MRC5 cells: inhibition of IL-1β induced IL-6 secretion (AlphaLISA)
Assay type: cell-based
Settings: inhibition of IL-1β induced IL-6 secretion in MRC5 cells; compound pre-incubated 1 hour with recombinant human IL-1β; read-out: MRC5 IC50
How it was run: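 Compound was pre-incubated 1 h at ambient temperature with recombinant human IL-1β at 2λ EC80 before adding human lung fibroblast MRC5 cells (3000/well) in EMEM with 0.025% BSA. After overnight culture at 37 °C, 5% CO2, secreted IL-6 in conditioned medium was measured by AlphaLISA; IC50 from 4-parameter logistic fits.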

T1 sequence (P01584 117-269): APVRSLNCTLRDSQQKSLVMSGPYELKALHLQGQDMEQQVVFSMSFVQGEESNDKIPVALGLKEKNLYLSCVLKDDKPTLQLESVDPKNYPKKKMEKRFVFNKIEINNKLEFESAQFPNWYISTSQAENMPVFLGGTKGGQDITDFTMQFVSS

Row | IC50 | Structure (SMILES)
1 | 0.024 nM | C[C@@H](c1c[nH]c2cccc(F)c12)[C@@H]1NC(=O)[C@@H]2C[C@H](F)CN2C(=O)CNC(=O)[C@H](Cc2ccc(C(=O)O)cc2)NC(=O)[C@H](Cc2ccncc2)NC(=O)[C@H](Cc2ccc(-c3ccc(C(=O)O)cc3)cc2)NC(=O)[C@H]2[C@@H](Cc3ccncc3)CCN2C(=O)CNC(=O)[C@H](CCN)NC(=O)[C@H](CCC(N)=O)NC(=O)[C@@H](CC(=O)O)NC(=O)C(C)(C)NC(=O)[C@H](Cc2c[nH]c3ccccc23)NC(=O)[C@H](CO)NC(=O)C(C)(C)NC1=O [Example 234] (cyclo([Bip(4'-COOH)][4Pal][Phe(4-COOH)]G[Pro(cis-4-F)][Trp(βS-Me,4-F)][Aib]SW[Aib][dD]Q[Dab]G[X4]))
2 | 0.016 nM | C[C@@H](c1c[nH]c2cccc(F)c12)[C@@H]1NC(=O)[C@@H]2C[C@H](F)CN2C(=O)CNC(=O)[C@H](Cc2ccc(C(=O)O)cc2)NC(=O)[C@H](Cc2ccncc2)NC(=O)[C@H](Cc2ccc(-c3ccncc3)cc2)NC(=O)[C@H]2[C@@H](Cc3ccc(F)cc3)CCN2C(=O)CNC(=O)[C@H](CCN)NC(=O)[C@H](CCC(N)=O)NC(=O)[C@H](Cc2cncnc2)NC(=O)[C@@](C)(CC(=O)O)NC(=O)[C@H](Cc2c[nH]c3ccccc23)NC(=O)[C@H](CO)NC(=O)C(C)(C)NC1=O [Example 283] (cyclo([Phe(4-(4-pyridyl))][4Pal][Phe(4-COOH)]G[Pro(cis-4-F)][Trp(βS-Me,4-F)][Aib]SW[d(αMeD)][Ala(pyrimidin-5-yl)]Q[Dab]G[dPro(3S-(4-F-Bn))]))

Same assay, conditions: inhibition of IL-1β induced IL-6 secretion in MRC5 cells; read-out: MRC5 IC50

Row | IC50 | Structure (SMILES)
3 | 0.027 nM | C[C@@H](c1c[nH]c2cccc(F)c12)[C@@H]1NC(=O)[C@@H]2C[C@H](F)CN2C(=O)CNC(=O)[C@H](Cc2ccc(C(=O)O)cc2)NC(=O)[C@H](Cc2ccncc2)NC(=O)[C@H](Cc2ccc(-c3ccc(C(=O)O)cc3)cc2)NC(=O)[C@H]2C[C@@H](Cc3ccc(F)cc3)CN2C(=O)CNC(=O)[C@H](CCN)NC(=O)[C@H](CCC(N)=O)NC(=O)[C@H](Cc2cccnc2)NC(=O)C(C)(C)NC(=O)[C@H](Cc2c[nH]c3ccccc23)NC(=O)[C@H](CCC(=O)O)NC(=O)C(C)(C)NC1=O [Example 72] (cyclo([3Pal]Q[Dab]G[dPro(4R-Bzl(4-F))][Bip(4'-COOH)][4Pal][Phe(4-COOH)]G[Pro(cis-4-F)][Trp(βS-Me,4-F)][Aib]EW[Aib]))
4 | 0.037 nM | C[C@@H](c1c[nH]c2cccc(F)c12)[C@@H]1NC(=O)[C@@H]2C[C@H](F)CN2C(=O)CNC(=O)[C@H](Cc2ccc(C(=O)O)cc2)NC(=O)[C@H](Cc2ccncc2)NC(=O)[C@H](Cc2ccc(-c3ccc(C(=O)O)cc3)cc2)NC(=O)[C@H]2C[C@@H](Cc3ccc(F)cc3)CN2C(=O)CNC(=O)[C@H](CO)NC(=O)[C@H](CCC(N)=O)NC(=O)[C@H](Cc2cncnc2)NC(=O)C(C)(C)NC(=O)[C@H](Cc2c[nH]c3ccccc23)NC(=O)[C@H](CCC(=O)O)NC(=O)C(C)(C)NC1=O [Example 3] (cyclo([Bip(4'-COOH)][4Pal][Phe(4-COOH)]G[Pro(cis-4-F)][Trp(βS-Me,4-F)][Aib]EW[Aib][Ala(pyrimidin-5-yl)]QSG[dPro(4R-Bzl(4-F))]))
5 | 0.018 nM | COc1ncc(-c2ccc(C[C@H]3CCN4C(=O)CNC(=O)[C@H](CCN)NC(=O)[C@H](CCC(N)=O)NC(=O)[C@H](Cc5cncnc5)NC(=O)C(C)(C)NC(=O)[C@H](Cc5c[nH]c6ccccc56)NC(=O)[C@H](CCC(=O)O)NC(=O)C(C)(C)NC(=O)[C@H]([C@@H](C)c5c[nH]c6cccc(F)c56)NC(=O)[C@@H]5C[C@H](F)CN5C(=O)CNC(=O)[C@H](Cc5ccc(C(=O)O)cc5)NC(=O)[C@H](Cc5ccncc5)NC(=O)[C@H](Cc5ccc(-c6ccc(C(=O)O)cc6)cc5)NC(=O)[C@@H]34)cc2)cn1 [Example 60] (cyclo([Bip(4'-COOH)][4Pal][Phe(4-COOH)]G[Pro(cis-4-F)][Trp(βS-Me,4-F)][Aib]EW[Aib][Ala(pyrimidin-5-yl)]Q[Dab]G[X1]))
6 | 0.021 nM | C[C@@H](c1c[nH]c2cccc(F)c12)[C@@H]1NC(=O)[C@@H]2C[C@H](F)CN2C(=O)CNC(=O)[C@H](Cc2ccc(C(=O)O)cc2)NC(=O)[C@H](CC23CC(C2)C3)NC(=O)[C@H](Cc2ccc(-c3ccc(C(=O)O)cc3)cc2)NC(=O)[C@H]2C[C@@H](Cc3ccncc3)CN2C(=O)CNC(=O)[C@H](CO)NC(=O)[C@H](CCC(N)=O)NC(=O)[C@H](CC2CCNCC2)NC(=O)[C@@](C)(CO)NC(=O)[C@H](Cc2c[nH]c3ccccc23)NC(=O)[C@H](CO)NC(=O)C(C)(C)NC1=O [Example 181] (cyclo([Bip(4'-COOH)][Ala(1-bicyclo(1.1.1)pentyl)][Phe(4-COOH)]G[Pro(cis-4-F)][Trp(βS-Me,4-F)][Aib]SW[d(αMeS)][Ala(piperidin-4-yl)]QSG[dPro(4R-(4-pyridylmethyl))]))
7 | 0.015 nM | C[C@@H](c1c[nH]c2cccc(F)c12)[C@@H]1NC(=O)[C@@H]2C[C@H](F)CN2C(=O)CNC(=O)[C@H](Cc2ccc(C(=O)O)cc2)NC(=O)[C@H](Cc2ccncc2)NC(=O)[C@H](Cc2ccc(-c3ccc(C(=O)O)cc3)cc2)NC(=O)[C@H]2C[C@@H](Cc3ccc(F)cc3)CN2C(=O)CN(C)C(=O)[C@H](CCN)NC(=O)[C@H](CCC(N)=O)NC(=O)[C@H](Cc2cncnc2)NC(=O)[C@](C)(CCCCN)NC(=O)[C@H](Cc2c[nH]c3ccccc23)NC(=O)[C@H](CCC(=O)O)NC(=O)C(C)(C)NC1=O [Example 132] (cyclo([Bip(4'-COOH)][4Pal][Phe(4-COOH)]G[Pro(cis-4-F)][Trp(βS-Me,4-F)][Aib]EW[αMeK][Ala(pyrimidin-5-yl)]Q[Dab][Sar][dPro(4R-Bzl(4-F))]))
8 | 0.022 nM | C[C@@H](c1c[nH]c2cccc(F)c12)[C@@H]1NC(=O)[C@@H]2C[C@H](F)CN2C(=O)CNC(=O)[C@H](Cc2ccc(C(=O)O)cc2)NC(=O)[C@H](Cc2ccncc2)NC(=O)[C@H](Cc2ccc(-c3ccc(C(=O)O)cc3)cc2)NC(=O)[C@H]2[C@@H](Cc3ccc(Br)cc3)CCN2C(=O)CNC(=O)[C@H](CCCN)NC(=O)[C@H](CCC(N)=O)NC(=O)[C@H](Cc2cncnc2)NC(=O)C(C)(C)NC(=O)[C@H](Cc2c[nH]c3ccccc23)NC(=O)[C@H](CCC(=O)O)NC(=O)C(C)(C)NC1=O [Example 151] (cyclo([Bip(4'-COOH)][4Pal][Phe(4-COOH)]G[Pro(cis-4-F)][Trp(βS-Me,4-F)][Aib]EW[Aib][Ala(pyrimidin-5-yl)]Q[Orn]G[dPro(3S-(4-Br-benzyl))]))
9 | 0.048 nM | CC(=O)N1CCN(c2ncc(C[C@@H]3NC(=O)[C@H]4C[C@@H](Cc5ccc(F)cc5)CN4C(=O)CNC(=O)[C@H](CCN)NC(=O)[C@H](CCC(N)=O)NC(=O)[C@H](Cc4cncnc4)NC(=O)C(C)(C)NC(=O)[C@H](Cc4c[nH]c5ccccc45)NC(=O)[C@H](CCC(=O)O)NC(=O)C(C)(C)NC(=O)[C@H]([C@@H](C)c4c[nH]c5cccc(F)c45)NC(=O)[C@@H]4C[C@H](F)CN4C(=O)CNC(=O)[C@H](Cc4ccc(C(=O)O)cc4)NC(=O)[C@H](Cc4ccncc4)NC3=O)cn2)CC1 [Example 40] (cyclo([X28][4Pal][Phe(4-COOH)]G[Pro(cis-4-F)][Trp(βS-Me,4-F)][Aib]EW[Aib][Ala(pyrimidin-5-yl)]Q[Dab]G[dPro(4R-Bzl(4-F))]))
10 | 0.015 nM | C[C@@H](c1c[nH]c2cccc(F)c12)[C@@H]1NC(=O)[C@@H]2C[C@H](F)CN2C(=O)CNC(=O)[C@H](Cc2ccc(C(=O)O)cc2)NC(=O)[C@H](Cc2ccncc2)NC(=O)[C@H](Cc2ccc(-c3ccc(C(=O)O)cc3)cc2)NC(=O)[C@H]2C[C@@H](Cc3ccc(F)cc3)CN2C(=O)CNC(=O)[C@H](CCN)NC(=O)[C@H](CCC(N)=O)NC(=O)[C@H](Cc2cnccn2)NC(=O)[C@@](C)(CC(=O)O)NC(=O)[C@H](Cc2c[nH]c3ccccc23)NC(=O)[C@H](CO)NC(=O)C(C)(C)NC1=O [Example 321] (cyclo([Bip(4'-COOH)][4Pal][Phe(4-COOH)]G[Pro(cis-4-F)][Trp(βS-Me,4-F)][Aib]SW[d(αMeD)][Ala(2-pyrazinyl)]Q[Dab]G[dPro(4R-Bzl(4-F))]))
11 | 0.058 nM | C[C@@H](c1c[nH]c2cccc(F)c12)[C@@H]1NC(=O)[C@@H]2C[C@H](F)CN2C(=O)CNC(=O)[C@H](Cc2ccc(C(=O)O)nc2)NC(=O)[C@H](CC23CC(C2)C3)NC(=O)[C@H](Cc2ccc(-c3ccc(C(=O)O)cc3)cc2)NC(=O)[C@H]2C[C@@H](Cc3ccc(F)cc3)CN2C(=O)CNC(=O)[C@H](CCN)NC(=O)[C@H](CCC(N)=O)NC(=O)[C@H](Cc2cncnc2)NC(=O)C(C)(C)NC(=O)[C@H](Cc2c[nH]c3ccccc23)NC(=O)[C@H](CCC(=O)O)NC(=O)C(C)(C)NC1=O [Example 98] (cyclo([Bip(4'-COOH)][Ala(1-bicyclo(1.1.1)pentyl)][X36]G[Pro(cis-4-F)][Trp(βS-Me,4-F)][Aib]EW[Aib][Ala(pyrimidin-5-yl)]Q[Dab]G[dPro(4R-Bzl(4-F))]))
12 | 0.021 nM | C[C@@H](c1c[nH]c2cccc(F)c12)[C@@H]1NC(=O)[C@@H]2C[C@H](O)CN2C(=O)CNC(=O)[C@H](Cc2ccc(C(=O)O)cc2)NC(=O)[C@H](CC23CC(C2)C3)NC(=O)[C@H](Cc2ccc(-c3ccc(C(=O)O)cc3)cc2)NC(=O)[C@H]2C[C@@H](Cc3ccncc3)CN2C(=O)CNC(=O)[C@H](CCN)NC(=O)[C@H](CCC(N)=O)NC(=O)[C@H](CC2CCOCC2)NC(=O)[C@@](C)(CO)NC(=O)[C@H](Cc2c[nH]c3ccccc23)NC(=O)[C@H](CO)NC(=O)C(C)(C)NC1=O [Example 192] (cyclo([Bip(4'-COOH)][Ala(1-bicyclo(1.1.1)pentyl)][Phe(4-COOH)]G[cisHyp][Trp(βS-Me,4-F)][Aib]SW[d(αMeS)][Ala(4-THP)]Q[Dab]G[dPro(4R-(4-pyridylmethyl))]))
